Assays:
Assay type in all cases: functional
3T3-L1 [1] = test: Acute effects in vitro by measuring 2-deoxyglucose (2DG) uptake in vehicle treated 3T3-L1 adipocytes at 10 uM dose.
3T3-L1 [2] = test: Acute effects in vitro by measuring 2-deoxyglucose (2DG) uptake in vehicle treated 3T3-L1 adipocytes at 30 uM dose.
3T3-L1 [3] = test: In vitro measurements of 2-Deoxyglucose (2DG) uptake in vehicle treated 3T3-L1 adipocytes at 60 uM dose.
Mus musculus [4] = test: compound was tested in vivo for hypoglycemic activity expressed as Glucose lowering relative to positive control in 6-8 week old C57BL/6J ob/ob mouse at 50 mg/kg
Mus musculus [5] = test: In vivo hypoglycemic activity expressed as glucose lowering relative to positive control in 6-8 week old C57BL/6J ob/ob mouse at 5 mg/kg.
Rattus norvegicus [6] = organism: Rattus norvegicus; test: Inhibition of gluconeogenesis in rat
Mus musculus [7] = test: compound was tested in vivo for hypoglycemic activity in 6-8 week old C57BL/6J ob/ob mouse at 10 mg/kg
Rattus norvegicus [8] = organism: Rattus norvegicus; test: Compound was tested for inhibition of gluconeogenesis
3T3-L1 [9] = test: compound was evaluated for their acute effects in vitro by measuring 2-Deoxyglucose (2DG) uptake in vehicle treated 3T3-L1 adipocytes at 1 uM dose.
3T3-L1 [10] = test: In vitro by measurements of 2-Deoxyglucose (2DG) uptake in vehicle treated 3T3-L1 adipocytes at 3 uM dose.
Mus musculus [11] = test: In vivo hypoglycemic activity expressed as glucose lowering relative to positive control in 6-8 week old C57BL/6J ob/ob mouse at 10 mg/kg
3T3-L1 [12] = test: In vitro measurements 2-Deoxyglucose (2DG) uptake in vehicle treated 3T3-L1 adipocytes at 100 uM dose.
L6 = test: compound was evaluated for their acute effects in vitro by measuring 2-Deoxyglucose (2DG) uptake in vehicle treated L6 […] at 60 uM dose.
Mus musculus [13] = test: In vivo hypoglycemic activity expressed as glucose lowering relative to positive control in 6-8 week old C57BL/6J ob/ob mouse at 1 mg/kg.
Mus musculus [14] = test: compound was tested in vivo for hypoglycemic activity expressed as Glucose lowering relative to positive control in 6-8 week old C57BL/6J ob/ob mouse at 0.5 mg/kg
[15] = Rattus norvegicus, read-out: ED50

Structure (SMILES)	Basal uptake (3T3-L1 [1]) [%]	Basal uptake (3T3-L1 [2]) [%]	Hypoglycemic activity (Mus musculus [5]) [%]	ED50 (Rattus norvegicus [6]; [15]) [mg/kg]	Hypoglycemic activity (Mus musculus [11]) [%]	also measured
CC(C)c1ccc2c(c1)CCC(Cc1ccc(Cl)cc1)(C(=O)O)O2 (centres undefined)	82	80	<0	5	–	Basal uptake (3T3-L1 [3]): 114%; Hypoglycemic activity (Mus musculus [4]): 119%
CC(C)c1ccc(CC(C)(Cc2ccc(Cl)cc2)C(=O)O)cc1 (centres undefined)	–	–	–	–	–	Hypoglycemic activity (Mus musculus [7]): 20%; ED50 (Rattus norvegicus [8]; [15]): > 10 mg/kg
CC(C)c1ccc(OC(C)(Cc2ccccc2-c2ccccc2)C(=O)[O-])cc1.[Na+] (centres undefined)	228	167	–	10	54	Basal uptake (3T3-L1 [9]): 97%; Basal uptake (3T3-L1 [10]): 148%
CC(C)c1ccc(OC(Cc2ccc(Cl)cc2Cl)C(=O)O)cc1 (centres undefined)	–	–	45	10	30	Basal uptake (3T3-L1 [12]): 222%; Hypoglycemic activity (Mus musculus [4]): 70%
COc1ccc(CC(Oc2ccc(C(C)C)cc2)C(=O)O)cc1 (centres undefined)	–	–	–	> 50	–	Basal uptake (3T3-L1 [12]): 127%; Hypoglycemic activity (Mus musculus [4]): <0%
CC(C)c1ccc(C(F)C(C)(Cc2ccc(Cl)cc2)C(=O)O)cc1 (stereo in doubt; 95)	–	–	–	–	–	Hypoglycemic activity (Mus musculus [7]; 10 mg/kg): 50%; ED50 (Rattus norvegicus [8]; [15]): 10 mg/kg
CC(C)c1ccc(OC(Cc2ccc(Br)cc2)C(=O)O)cc1 (centres undefined)	–	–	–	10	<0	Basal uptake (3T3-L1 [12]): 203%; Hypoglycemic activity (Mus musculus [4]): 122%
CC(Cc1ccc(Cl)cc1)(Oc1ccc(C2CCSc3ccccc32)cc1)C(=O)[O-].[Na+] (centres undefined)	118	157	–	10	38	Basal uptake (3T3-L1 [9]): 98%; Basal uptake (3T3-L1 [10]): 130%
Cc1ccc(S(=O)(=O)C(Cc2ccc(Cl)cc2)C(=O)O)cc1 (centres undefined)	–	–	–	> 50	–	Basal uptake (3T3-L1 [3]): 89%; Hypoglycemic activity (Mus musculus [4]): <0%
CC(C)c1ccc(OC(C)(Cc2ccc(C(F)(F)F)cc2)C(=O)O)cc1 (centres undefined)	–	–	65	< 5	–	Basal uptake (L6): 103%
CC(C)c1ccc(OC(C)(C(=O)O)C2CCc3cc(Cl)ccc32)cc1 (stereo in doubt; 100)	83	89	78	–	–	Basal uptake (3T3-L1 [10]): 85%; Hypoglycemic activity (Mus musculus [11]; 10 mg/kg): 105%; Hypoglycemic activity (Mus musculus [13]): 14%; ED50 (Rattus norvegicus [6]): 1 mg/kg
Cc1ccc(CC(C)(Oc2ccc(C(C)C)cc2)C(=O)[O-])cc1.[Na+] (centres undefined)	–	–	100	< 1	106	Basal uptake (3T3-L1 [12]): 92%; Hypoglycemic activity (Mus musculus [13]): 58%
CC(C)c1ccc(OC(C(=O)O)c2ccc(Cl)cc2)cc1 (centres undefined)	–	–	–	> 50	–	Basal uptake (3T3-L1 [12]): 248%; Hypoglycemic activity (Mus musculus [4]): <0%
Cc1ccccc1S(=O)(=O)[N-]CC(C)(Cc1ccc(Cl)cc1)Oc1ccc(C(C)C)cc1.[Na+] (centres undefined)	–	–	–	–	–	Hypoglycemic activity (Mus musculus [7]): 7%; ED50 (Rattus norvegicus [8]; [15]): 10 mg/kg
CCC(c1ccc(Cl)cc1)C(C)(Oc1ccc(C(C)C)cc1)C(=O)O (stereo in doubt; 87)	96	109	–	–	–	Basal uptake (3T3-L1 [9]): 98%; Hypoglycemic activity (Mus musculus [11]; 10 mg/kg): 32%; ED50 (Rattus norvegicus [6]): >10 mg/kg
CCc1ccc(CC(C)(Oc2ccc(C(=O)c3ccccc3)cc2)C(=O)O)cc1 (centres undefined)	–	–	108	0.5	107	Hypoglycemic activity (Mus musculus [14]): 60%; Hypoglycemic activity (Mus musculus [13]): 65%

Structure (SMILES)	Basal uptake (3T3-L1 [1]) [%]	Basal uptake (3T3-L1 [2]) [%]	Hypoglycemic activity (Mus musculus [5]) [%]	ED50 (Rattus norvegicus [6]; [15]) [mg/kg]	Hypoglycemic activity (Mus musculus [11]) [%]	also measured
CCC(c1ccc(Cl)cc1)C(C)(Oc1ccc(C(C)C)cc1)C(=O)O (stereo in doubt; 86)	91	95	–	< 10	–	Basal uptake (3T3-L1 [9]): 97%; Hypoglycemic activity (Mus musculus [11]; 10 mg/kg): 71%
CC(C)c1ccc(OC(C)(Cc2ccc(Cl)cc2)C(=O)NS(=O)(=O)C(F)(F)F)cc1 (centres undefined)	232	273	–	5	–	Basal uptake (3T3-L1 [9]): 108%; Basal uptake (3T3-L1 [10]): 130%; Basal uptake (3T3-L1 [3]): 79%
CCCCc1ccc(CC(C)(Oc2ccc(C(C)C)cc2)C(=O)[O-])cc1.[Na+] (centres undefined)	94	200	92	1	130	Basal uptake (3T3-L1 [10]): 82%; Hypoglycemic activity (Mus musculus [13]): 17%
CC(C)c1ccc2c(c1)C(c1ccc(Cl)cc1)C(C(=O)O)O2 (centres undefined)	–	–	–	> 50	–	Basal uptake (3T3-L1 [3]): 89%; Hypoglycemic activity (Mus musculus [4]): 25%
CC(C)c1ccc2c(c1)CC(Cc1ccc(Cl)cc1)(C(=O)O)O2 (centres undefined)	–	–	–	> 50	–	Basal uptake (3T3-L1 [3]): 66%; Hypoglycemic activity (Mus musculus [4]): <0%
CCC(Cc1ccc(Cl)cc1)(Oc1ccc(C(C)C)cc1)C(=O)[O-].[Na+] (centres undefined)	–	–	36	> 5	–	Basal uptake (3T3-L1 [12]): 156%
CC(C)c1ccc(OC(C)(Cc2ccc(-c3ccccc3)cc2)C(=O)[O-])cc1.[Na+] (centres undefined)	129	126	93	1	116	Basal uptake (3T3-L1 [10]): 122%; Hypoglycemic activity (Mus musculus [14]): 21%; Hypoglycemic activity (Mus musculus [13]): 58%
CC(C)c1ccc(OC(C)(Cc2ccc3c(c2)CCC3)C(=O)[O-])cc1.[Na+] (centres undefined)	–	–	121	0.5	126	Hypoglycemic activity (Mus musculus [14]): 34%; Hypoglycemic activity (Mus musculus [13]): 83%
Cc1cccc(CC(C)(Oc2ccc(C(C)C)cc2)C(=O)[O-])c1.[Na+] (centres undefined)	98	84	83	< 1	83	Basal uptake (3T3-L1 [10]): 93%; Hypoglycemic activity (Mus musculus [13]): 63%
CCCc1cccc(CC(C)(Oc2ccc(C(C)C)cc2)C(=O)[O-])c1.[Na+] (centres undefined)	128	229	82	1	123	Basal uptake (3T3-L1 [9]): 123%; Basal uptake (3T3-L1 [10]): 136%; Hypoglycemic activity (Mus musculus [13]): 47%
CC(C)c1ccc(OC(C)(C(=O)NS(=O)(=O)C(F)(F)F)C(C)c2ccc(Cl)cc2)cc1 (centres undefined)	248	113	–	> 10	7	Basal uptake (3T3-L1 [9]): 94%
CC(C)c1ccc(OC(Cc2ccc3ccccc3c2)C(=O)O)cc1 (centres undefined)	–	–	–	50	–	Basal uptake (3T3-L1 [12]): 143%; Hypoglycemic activity (Mus musculus [4]): 45%
CC(C)c1ccc(C(F)C(C)(Cc2ccc(Cl)cc2)C(=O)O)cc1 (stereo in doubt; 94)	–	–	–	–	–	Hypoglycemic activity (Mus musculus [7]; 10 mg/kg): 63%; ED50 (Rattus norvegicus [8]): 10 mg/kg
CCc1cccc(CC(C)(Oc2ccc(C(C)C)cc2)C(=O)[N-]S(=O)(=O)C(F)(F)F)c1.[Na+] (centres undefined)	–	–	–	–	–	Hypoglycemic activity (Mus musculus [7]): 43%; ED50 (Rattus norvegicus [8]; [15]): > 10 mg/kg
CC(Cc1ccc2c(c1)CCC2)(Oc1ccc(Cc2ccccc2)cc1)C(=O)[O-].[Na+] (centres undefined)	–	–	102	0.5	120	Hypoglycemic activity (Mus musculus [14]): 50%; Hypoglycemic activity (Mus musculus [13]): 78%

Reference: ChEMBL document CHEMBL1129417, “Glucose transport-enhancing and hypoglycemic activity of 2-methyl-2-phenoxy-3-phenylpropanoic acids” (1996)
